Laboratory results as given in US20130261130A1, “NEUROTRYPSIN INHIBITORS” (priority 2010, published 2013).

Target: T1, human neurotrypsin (Homo sapiens, UniProt P56730)
T1 sequence (P56730 21-875): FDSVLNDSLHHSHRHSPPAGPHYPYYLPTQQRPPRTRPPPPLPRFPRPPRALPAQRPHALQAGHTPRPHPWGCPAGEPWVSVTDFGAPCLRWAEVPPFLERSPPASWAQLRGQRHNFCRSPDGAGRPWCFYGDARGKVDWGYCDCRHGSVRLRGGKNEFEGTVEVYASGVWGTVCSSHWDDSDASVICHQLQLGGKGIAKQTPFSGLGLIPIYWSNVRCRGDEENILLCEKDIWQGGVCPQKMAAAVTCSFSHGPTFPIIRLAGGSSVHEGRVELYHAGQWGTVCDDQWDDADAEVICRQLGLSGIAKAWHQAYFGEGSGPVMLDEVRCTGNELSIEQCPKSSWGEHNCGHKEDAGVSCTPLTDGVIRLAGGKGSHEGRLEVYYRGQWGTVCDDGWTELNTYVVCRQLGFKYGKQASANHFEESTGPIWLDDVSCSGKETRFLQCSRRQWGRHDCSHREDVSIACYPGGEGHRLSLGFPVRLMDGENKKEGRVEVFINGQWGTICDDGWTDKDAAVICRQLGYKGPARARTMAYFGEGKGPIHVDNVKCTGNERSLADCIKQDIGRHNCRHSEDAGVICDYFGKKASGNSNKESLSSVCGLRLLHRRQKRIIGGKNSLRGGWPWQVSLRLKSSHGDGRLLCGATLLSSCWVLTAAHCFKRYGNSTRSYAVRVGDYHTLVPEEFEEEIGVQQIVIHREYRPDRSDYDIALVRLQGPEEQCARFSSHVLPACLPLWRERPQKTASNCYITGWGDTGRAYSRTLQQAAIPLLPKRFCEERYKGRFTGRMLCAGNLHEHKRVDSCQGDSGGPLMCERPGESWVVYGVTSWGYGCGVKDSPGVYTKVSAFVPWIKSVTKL
Experiment: Determination of IC50 for human neurotrypsin
Format: biochemical
Conditions: human neurotrypsin; method of WO 2006/1103261; read-out: Neurotrypsin IC50
Protocol: Assessment of the potency of compounds of examples 1-311 in inhibiting the enzymatic activity of human neurotrypsin was performed according to the method described in patent application WO 2006/1103261

Row | Compound | IC50
1 | O=C(O)c1ccc(C#Cc2ccc(Cl)cc2)cc1NC(=O)c1sc2ccccc2c1Cl [Example 248] | > 150 µM
2 | O=C(O)c1cc(C(=O)N2CCC(Cc3ccccc3)CC2)ccc1NC(=O)c1sc2ccccc2c1Cl [Example 157, 5-(4-Benzylpiperidine-1-carbonyl)-2-(3-chlorobenzo[b]thiophene-2-carboxamido)benzoic acid] | 3.8 µM
3 | O=C(O)c1ccc(C(=O)N2CCC(Cc3ccccc3)CC2)cc1NC(=O)c1sc2ccccc2c1Cl [Example 24, 4-(4-Benzylpiperidine-1-carbonyl)-2-(3-chloro-benzo[b]thiophene-2-carboxamido)benzoic acid] | 4 µM
4 | CC(C)CN(CC(C)C)C(=O)c1ccc(NC(=O)c2ccc(-c3nc4cc(Cl)c(Cl)cc4[nH]3)cc2)c(C(=O)O)c1 [Example 131] | 0.7 µM
5 | O=C(NCc1ccc(-c2ccc(Cl)cc2)s1)c1ccc(C(=O)O)c(NC(=O)c2sc3ccccc3c2Cl)c1 [Example 91, 2-(3-Chlorobenzo[b]-thiophene-2-carboxamido)-4-((5-(4-chlorophenyl)thiophen-2-ylmethyl)carbamoyl)-benzoic acid] | 10 µM
6 | O=C(Nc1ccc(C(=O)N2CCC(Cc3ccc(Cl)cc3)CC2)cc1C(=O)O)c1cc2ccc(Cl)cc2s1 [Example 164, 2-(6-Chlorobenzo[b]-thiophene-2-carboxamido)-5-(4-(4-chlorobenzyl)piperidine-1-carbonyl)benzoic acid] | 3.5 µM
7 | Cn1c(-c2ccc(C(=O)Nc3cc(C(=O)Nc4ccc(Cl)cc4)c(OCC(=O)O)cc3C(=O)O)cc2)nc2cc(Cl)c(Cl)cc21 [Example 306] | 0.5 µM
8 | O=C(Nc1ccc(Cl)cc1)Nc1ccc(C(=O)O)c(NC(=O)c2sc3ccccc3c2Cl)c1 [Example 276] | 6.3 µM
9 | COC(=O)c1cc(OCC(=O)O)c(C(=O)Nc2ccc(Cl)cc2)cc1NC(=O)c1ccc(-c2nc3cc(Cl)c(Cl)cc3n2C)cc1 [Example 305] | 1.2 µM
10 | O=C(O)c1ccc(NC(=O)c2ccc(Cl)s2)c(C(=O)Nc2ccc(Cl)cc2)c1 [Example 218, 3-(4-Chlorophenyl-carbamoyl)-4-(5-chloro-thiophene-2-carboxamido)-benzoic acid] | 40.8 µM
11 | CC(NC(=O)c1ccc(NC(=O)c2ccc(-c3ccc(Cl)cc3)s2)c(C(=O)O)c1)c1ccc(Cl)cc1 (stereo not drawn) [Example 110] | 3.4 µM
12 | O=C(O)c1ccc(-c2ccccc2Cl)cc1NC(=O)c1sc2ccccc2c1Cl [Example 250] | 2.4 µM
13 | O=C(NCCc1ccccc1)c1ccc(NC(=O)c2ccc(-c3nc4cc(Cl)c(Cl)cc4[nH]3)cc2)c(C(=O)O)c1 [Example 123] | 3.5 µM
14 | O=C(O)c1ccc(CN2CC(c3ccc(Cl)cc3)OC2=O)cc1NC(=O)c1sc2ccccc2c1Cl (stereo not drawn) [Example 301] | 8.7 µM
15 | CC(Nc1ccc(C(=O)O)c(NC(=O)c2sc3ccccc3c2Cl)c1)c1ccc(Cl)cc1 (stereo not drawn) [Example 290] | 4.1 µM
16 | O=C(O)c1ccc(C(=O)Nc2ccc(Cc3ccccc3)cc2)c(NC(=O)c2sccc2Cl)c1 [Example 196, 4-(4-Benzylphenyl-carbamoyl)-3-(3-chloro-thiophene-2-carboxamido)-benzoic acid] | 10.2 µM
17 | O=C(NC1CCCc2ccccc21)c1ccc(C(=O)O)c(NC(=O)c2sc3ccccc3c2Cl)c1 (stereo not drawn) [Example 32, 2-(3-Chlorobenzo[b]-thiophene-2-carboxamido)-4-(1,2,3,4-tetrahydro-naphthalen-1-ylcarbamoyl)-benzoic acid] | 13.6 µM
18 | O=C(O)COc1cc(C(=O)O)c(NC(=O)c2ccc(-c3nc4cc(Cl)c(Cl)cc4n3CC(=O)O)cc2)cc1C(=O)Nc1ccc(Cl)cc1 [Example 302, 5-(Carboxymethoxy)-2-(4-(1-(carboxymethyl)-5,6-dichloro-1H-benzo[d]imidazol-2-yl)benzamido)-4-(4-chlorophenylcarbamoyl)benzoic acid] | 4.4 µM
19 | CC(C)(C)c1cccc(NC(=O)c2ccc(C(=O)O)c(NC(=O)c3sc4ccccc4c3Cl)c2)c1 [Example 75] | 5.6 µM
20 | CC(C)CN(CC(C)C)C(=O)c1ccc(NC(=O)c2ccc(-c3nc4cc(Cl)c(Cl)cc4[nH]3)c(O)c2)c(C(=O)O)c1 [Example 42, 2-(4-(5,6-Dichloro-1H-benzo[d]imidazol-2-yl)-3-hydroxybenzamido)-5-(diisobutylcarbamoyl)benzoic acid] | 4.4 µM

Row | Compound | IC50
21 | O=C(Nc1ccc(C(=O)N2CCC(Cc3ccc(F)cc3)CC2)cc1C(=O)O)c1ccc(-c2nc3cc(Cl)c(Cl)cc3[nH]2)cc1 [Example 141, 2-(4-(5,6-Dichloro-1H-benzo[d]imidazol-2-yl)benzamido)-5-(4-(4-fluorobenzyl)piperidine-1-carbonyl)benzoic acid] | 1.9 µM
22 | O=C(Nc1ccc(Cl)cc1)c1ccc(-c2nn[nH]n2)c(NC(=O)c2sc3ccccc3c2Cl)c1 [Example 229, 3-Chloro-benzo[b]thiophene-2-carboxylic acid [5-(4-chloro-phenyl-carbamoyl)-2-(2H-tetrazol-5-yl)phenyl]amide] | 3.7 µM
23 | CCOC(=O)CN(C(=O)c1ccc(C(=O)O)c(NC(=O)c2sc3ccccc3c2Cl)c1)c1ccc(Cl)cc1 [Example 156, 2-(3-Chlorobenzo[b]-thiophene-2-carboxamido)-4-(N-(4-chlorophenyl)-N-(ethoxycarbonylmethyl)-carbamoyl)benzoic acid] | 4.7 µM
24 | 4-(4-tert-Butoxyphenyl-carbamoyl)-3-(3-chloro-thiophene-2-carboxamido)-benzoic acid [Example 194] | 5.9 µM
25 | O=C(N[C@@H]1C[C@H]2CC[C@@H]1C2)c1ccc(C(=O)O)c(NC(=O)c2sc3ccccc3c2Cl)c1 [Example 34, 4-((1R,2R,4S)-Bicyclo[2.2.1]-heptan-2-ylcarbamoyl)-2-(3-chlorobenzo[b]thiophene-2-carboxamido)benzoic acid] | 14.1 µM
26 | O=C(O)c1ccc(NCc2ccc(Cl)cc2)cc1NC(=O)c1sc2ccccc2c1Cl [Example 280, 2-(3-Chlorobenzo[b]thiophene-2-carboxamido)-4-(4-chlorobenzylamino)-benzoic acid] | 5 µM
27 | CN(C(=O)c1ccc(C(=O)O)c(NC(=O)c2sc3ccccc3c2Cl)c1)c1cc2ccccc2s1 [Example 88] | 24.8 µM
28 | O=C(O)c1ccc(Nc2ccc(Cl)cc2)cc1NC(=O)c1sc2ccccc2c1Cl [Example 288, 2-(3-Chlorobenzo[b]thiophene-2-carboxamido)-4-(4-chlorophenyl-amino)benzoic acid] | 5.1 µM
29 | 3-Chloro-N-(5-(5-chloro-1,3-thiazol-2-ylcarbamoyl)-2-(2H-tetrazol-5-yl)phenyl)benzo[b]-thiophene-2-carboxamide [Example 227] | 9.7 µM
30 | O=C(Nc1ccc(C(=O)O)c(NC(=O)c2ccc(-c3ccccc3)s2)c1)c1ccc(Cl)s1 [Example 275] | 3 µM
31 | CC(C)CN(CC(C)C)C(=O)c1ccc(NC(=O)c2ccc(-c3nc4cc(Cl)c(Cl)cc4n3C)cc2)c(C(=O)O)c1 [Example 46, 2-(4-(5,6-Dichloro-1-methyl-1H-benzo[d]imidazol-2-yl)benzamido)-5-(diisobutyl-carbamoyl)benzoic acid] | 3.4 µM
32 | O=C(Nc1ccc(Cl)cc1)c1ccc(NC(=O)c2ccc(-c3nc4ccccc4[nH]3)cc2)c(C(=O)O)c1 [Example 36, 2-(4-(1H-Benzo[d]imidazol-2-yl)benzamido)-5-(4-chloro-phenylcarbamoyl)benzoic acid] | 3.5 µM
33 | O=C(Nc1ccc(Cl)cc1)c1ccc(C(=O)O)c(NC(=O)c2cc(Br)cc(Br)c2O)c1 [Example 143, 4-(4-Chlorophenyl-carbamoyl)-2-(3,5-dibromo-2-hydroxybenzamido)benzoic acid] | 3.9 µM
34 | O=C(O)c1cc(C(=O)N2CCC(Cc3ccc(Cl)cc3)CC2)ccc1NC(=O)c1sc2ccccc2c1Cl [Example 118, 2-(3-Chlorobenzo[b]-thiophene-2-carboxamido)-5-(4-(4-chlorobenzyl)piperidine-1-carbonyl)benzoic acid] | 2.2 µM
35 | CC(C)CN(C(=O)c1ccc(NC(=O)c2ccc(-c3nc4cc(Cl)c(Cl)cc4[nH]3)cc2)c(C(=O)O)c1)c1ccc(Cl)cc1 [Example 45, 5-(N-4-Chlorophenyl-N-isobutylcarbamoyl)-2-(4-(5,6-dichloro-1H-benzo[d]-imidazol-2-yl)benzamido)-benzoic acid] | 1.5 µM
36 | O=C(Nc1ccccc1O)c1ccc(C(=O)O)c(NC(=O)c2sc3ccccc3c2Cl)c1 [Example 82] | 17.8 µM
37 | O=C(O)c1ccc(C(=O)N2CCC(Oc3ccccc3)C2)cc1NC(=O)c1sc2ccccc2c1Cl (stereo not drawn) [Example 101] | 9 µM
38 | O=C(O)c1ccc(-c2cn(-c3ccc(Cl)c(C(F)(F)F)c3)nn2)cc1NC(=O)c1sc2ccccc2c1Cl [Example 261] | 5.5 µM
39 | O=C(NCC1CCCCC1)c1ccc(NC(=O)c2ccc(-c3nc4cc(Cl)c(Cl)cc4[nH]3)cc2)c(C(=O)O)c1 [Example 126] | 1.2 µM
